Assay results as given in patent US20220289724A1, “KIF18A INHIBITORS” (AMGEN INC., priority 2019, published 2022).

The compounds below were run against T1, Recombinant human KIF18A (1-467 His-tagged) protein (Homo sapiens, UniProt Q8NI77) (assay: KIF18A Enzyme Assay: microtubule-stimulated ATPase activity assay (ADP-Glo)). Settings: KIF18A protein 30 nM, 30 μg/mL pig microtubules, ATP at Km 75 μM, ADP-Glo luminescence, RT.
T1 construct: Recombinant human KIF18A (1-467 His-tagged) protein; His; made in house
Assay type: biochemical
Text: KIF18A Enzyme Assay: Microtubule-stimulated ATPase activity assay is used to measure KIF18A enzyme activity after treatment with compound. Compounds were 2-fold serially diluted in DMSO (Sigma Inc) over 22-point concentration range. Recombinant human KIF18A (1-467 His-tagged) protein was expressed using a baculovirus system and purified by affinity chromatography by Amgen Inc. Concentrations of KIF18A protein, microtubules (MT), and ATP in the reaction were optimized for standardized homogenous enzyme assay using ADP-Glorm Kinase/ATPase Assay Kit (Promega Inc). The assay measures ADP formed from the ATPase reaction. […] Concentration-response curve-fitting and IC50 determination was performed using Genedata Screener Software (Standard 15.0.1, Genedata Inc) with a four-parameter logistic regression fit model.
Table A provides data for compounds exemplified in the present application and priority document thereof, as representative compounds of the present invention, as follows: chemical name (as named by either ACD software or ChemDraw (Professional 15.0)) and biological data (IC50 in μM). Ex. […] refers to Example No.

T1 sequence (Q8NI77 1-467): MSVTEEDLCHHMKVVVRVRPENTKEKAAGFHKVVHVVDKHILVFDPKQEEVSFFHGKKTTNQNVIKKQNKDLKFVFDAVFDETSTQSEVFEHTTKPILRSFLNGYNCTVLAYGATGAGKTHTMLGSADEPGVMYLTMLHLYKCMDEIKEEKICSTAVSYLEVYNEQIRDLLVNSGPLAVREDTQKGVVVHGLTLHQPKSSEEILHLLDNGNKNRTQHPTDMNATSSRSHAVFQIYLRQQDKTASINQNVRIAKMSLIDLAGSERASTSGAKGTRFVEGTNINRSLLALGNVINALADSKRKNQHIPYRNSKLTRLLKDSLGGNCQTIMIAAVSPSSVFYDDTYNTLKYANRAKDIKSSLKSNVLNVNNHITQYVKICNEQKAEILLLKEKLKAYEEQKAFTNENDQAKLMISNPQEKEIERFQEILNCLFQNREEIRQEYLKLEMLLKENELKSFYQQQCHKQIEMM
T1 sequence (P02550 whole entry partner): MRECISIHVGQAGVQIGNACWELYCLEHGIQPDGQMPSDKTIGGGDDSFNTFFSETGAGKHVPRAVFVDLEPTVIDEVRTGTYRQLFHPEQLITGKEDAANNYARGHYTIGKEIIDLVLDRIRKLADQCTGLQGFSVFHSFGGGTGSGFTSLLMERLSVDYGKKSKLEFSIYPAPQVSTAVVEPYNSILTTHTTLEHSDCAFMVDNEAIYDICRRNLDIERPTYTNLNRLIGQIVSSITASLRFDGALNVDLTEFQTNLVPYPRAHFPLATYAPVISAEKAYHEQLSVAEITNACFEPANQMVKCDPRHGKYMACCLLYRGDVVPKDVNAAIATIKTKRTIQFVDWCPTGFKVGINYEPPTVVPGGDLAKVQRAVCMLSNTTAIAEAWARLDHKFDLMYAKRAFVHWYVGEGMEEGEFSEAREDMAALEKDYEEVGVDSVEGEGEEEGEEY
T1 sequence (P02554 whole entry partner): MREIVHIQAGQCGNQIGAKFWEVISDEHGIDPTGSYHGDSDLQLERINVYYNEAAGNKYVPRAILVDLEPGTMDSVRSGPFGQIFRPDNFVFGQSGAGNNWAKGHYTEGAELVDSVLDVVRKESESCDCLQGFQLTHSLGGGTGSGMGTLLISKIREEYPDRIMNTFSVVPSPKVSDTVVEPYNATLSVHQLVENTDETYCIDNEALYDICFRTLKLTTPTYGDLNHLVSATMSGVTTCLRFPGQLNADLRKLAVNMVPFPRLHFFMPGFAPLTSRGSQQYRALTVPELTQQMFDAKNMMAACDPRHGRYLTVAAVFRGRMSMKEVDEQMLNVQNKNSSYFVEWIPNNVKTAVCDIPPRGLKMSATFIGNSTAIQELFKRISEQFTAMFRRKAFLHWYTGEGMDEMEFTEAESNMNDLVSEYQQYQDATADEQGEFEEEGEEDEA

Row | SMILES | IC50
1 | CC(C)(CO)Nc1cccc(NC(=O)c2ccc(NS(=O)(=O)C3(C)CC3)cc2N2CCC3(CC2)CC3)c1 [Example 101-3, N-(3-((1-hydroxy-2-methylpropan-2-yl)amino)phenyl)-4-((1-methylcyclopropane)-1-sulfonamido)-2-(6-azaspiro[2.5]octan-6-yl)benzamide] | 115 nM
2 | CS(=O)(=O)c1ccc(C(=O)Nc2cccc(N3CCOCC3)c2)c(N2CCC3(CC2)CC3)c1 [Example 100-10, 4-(methylsulfonyl)-N-(3-morpholinophenyl)-2-(6-azaspiro[2.5]octan-6-yl)benzamide] | 862 nM
3 | CS(=O)(=O)c1ccc(C(=O)Nc2cccc3ccoc23)c(N2CCC3(CC2)CC3)c1 [Example 100-8, N-(benzofuran-7-yl)-4-(methylsulfonyl)-2-(6-azaspiro[2.5]octan-6-yl)benzamide] | 200 nM
4 | CC(C)(C)NS(=O)(=O)c1cccc(NC(=O)c2ccc(NS(=O)(=O)C3CC3)cc2N2CCC3(CC2)CC3)c1 [Example 102-4, N-(3-(N-(tert-butyl)sulfamoyl)phenyl)-4-(cyclopropanesulfonamido)-2-(6-azaspiro[2.5]octan-6-yl)benzamide] | 30 nM
5 | CC(C)(C)NS(=O)(=O)c1cccc(NC(=O)c2ccc(C(=O)NCCO)cc2N2CCC3(CC2)CC3)c1 [Example 111, N-(3-(N-(tert-Butyl)sulfamoyl)phenyl)-N^4-(2-hydroxyethyl)-2-(6-azaspiro[2.5]octan-6-yl)terephthalamide] | 124 nM
6 | O=C(Nc1ccc(NS(=O)(=O)CCO)cc1N1CCC2(CC1)CC2)c1cccc(N2CCCCC2)c1 [Example 115, N-(4-((2-Hydroxyethyl)sulfonamido)-2-(6-azaspiro[2.5]octan-6-yl)phenyl)-3-(piperidin-1-yl)benzamide] | 26 nM
7 | CCS(=O)(=O)Nc1ccc(C(=O)Nc2cccc(S(=O)(=O)NC(C)(C)C)c2)c(N2CCC3(CC2)CC3)c1 [Example 102-2, N-(3-(N-(tert-butyl)sulfamoyl)phenyl)-4-(ethylsulfonamido)-2-(6-azaspiro[2.5]octan-6-yl)benzamide] | 34 nM
8 | CC(C)(C)NS(=O)(=O)c1cccc(NC(=O)c2ccc(C3(O)COC3)cc2N2CCC3(CC2)CC3)c1 [Example 100-15, N-(3-(N-(tert-butyl)sulfamoyl)phenyl)-4-(3-hydroxyoxetan-3-yl)-2-(6-azaspiro[2.5]octan-6-yl)benzamide] | 88 nM
9 | CC(C)(C)NS(=O)(=O)c1cccc(NC(=O)c2ccc(NS(C)(=O)=O)cc2N2CCC3(CC2)CC3)c1 [Example 102-1, N-(3-(N-(tert-butyl)sulfamoyl)phenyl)-4-(methylsulfonamido)-2-(6-azaspiro[2.5]octan-6-yl)benzamide] | 27 nM
10 | CC(C)(C)NS(=O)(=O)c1cccc(NC(=O)c2ccc(CS(C)(=O)=O)cc2N2CCC3(CC2)CC3)c1 [Example 100-11, N-(3-(N-(tert-butyl)sulfamoyl)phenyl)-4-((methylsulfonyl)methyl)-2-(6-azaspiro[2.5]octan-6-yl)benzamide] | 51 nM
11 | CS(=O)(=O)c1ccc(C(=O)Nc2cccc3ccsc23)c(N2CCC3(CC2)CC3)c1 [Example 100-9, N-(benzo[b]thiophen-7-yl)-4-(methylsulfonyl)-2-(6-azaspiro[2.5]octan-6-yl)benzamide] | 630 nM
12 | CS(=O)(=O)c1ccc(C(=O)Nc2cccc3cccnc23)c(N2CCC3(CC2)CC3)c1 [Example 100-5, 4-(methylsulfonyl)-N-(quinolin-8-yl)-2-(6-azaspiro[2.5]octan-6-yl)benzamide] | 246 nM
13 | CC(C)S(=O)(=O)Nc1ccc(C(=O)Nc2cccc(S(=O)(=O)NC(C)(C)C)c2)c(N2CCC3(CC2)CC3)c1 [Example 102-3, N-(3-(N-(tert-butyl)sulfamoyl)phenyl)-4-((1-methylethyl)sulfonamido)-2-(6-azaspiro[2.5]octan-6-yl)benzamide] | 26 nM
14 | CC(C)(C)NS(=O)(=O)c1cccc(NC(=O)c2ccc(S(C)(=O)=O)cc2N2CCC3(CC2)CC3)c1 [Example 100-1, N-(3-(N-(tert-butyl)sulfamoyl)phenyl)-4-(methylsulfonyl)-2-(6-azaspiro[2.5]octan-6-yl)benzamide] | 61 nM

The next lines start with the values.

Row | IC50 | SMILES
15 | 488 nM | C[S@](=N)(=O)c1cccc(NC(=O)c2ccc(NS(=O)(=O)CCO)cc2N2CCC3(CC2)CC3)c1 [Example 113-2, (S)-4-((2-hydroxyethyl)sulfonamido)-N-(3-(S-methylsulfonimidoyl)phenyl)-2-(6-azaspiro[2.5]octan-6-yl)benzamide]
16 | 323 nM | CC(C)(C)[S@](=N)(=O)c1cccc(NC(=O)c2ccc(NS(=O)(=O)CCO)cc2N2CCC3(CC2)CC3)c1 [Example 114-2, (S)-4-((2-hydroxyethyl)sulfonamido)-N-(3-(2-methylpropan-2-ylsulfonimidoyl)phenyl)-2-(6-azaspiro[2.5]octan-6-yl)benzamide]
17 | 60 nM | CC(C)(C)NS(=O)(=O)c1cccc(NC(=O)c2ccc(S(=O)(=O)NC(C)(C)CO)cc2N2CCC3(CC2)CC3)c1 [Example 107-1, N-(3-(N-(tert-butyl)sulfamoyl)phenyl)-4-(N-(1-hydroxy-2-methylpropan-2-yl)sulfamoyl)-2-(6-azaspiro[2.5]octan-6-yl)benzamide]
18 | 101 nM | C[C@@H]1CN(c2cccc(NC(=O)c3ccc(NS(=O)(=O)CCO)cc3N3CCC4(CC3)CC4)c2F)CCO1 [Example 103-2, (R)-N-(2-fluoro-3-(2-methylmorpholino)phenyl)-4-((2-hydroxyethyl)sulfonamido)-2-(6-azaspiro[2.5]octan-6-yl)benzamide]
19 | 42 nM | C[C@@H](CO)S(=O)(=O)Nc1ccc(C(=O)Nc2cccc(S(=O)(=O)NC(C)(C)C)c2)c(N2CCC3(CC2)CC3)c1 (single isomer, unassigned) [Example 105-1]
20 | 12 nM | O=C(Nc1cccc(N2CCC(F)(F)CC2)c1)c1ccc(NS(=O)(=O)CCO)cc1N1CCC2(CC1)CC2 [Example 104-1, N-(3-(4,4-difluoropiperidin-1-yl)phenyl)-4-((2-hydroxyethyl)sulfonamido)-2-(6-azaspiro[2.5]octan-6-yl)benzamide]
21 | 177 nM | C[C@@H]1CN(c2cc(NC(=O)c3ccc(NS(=O)(=O)CCO)cc3N3CCC4(CC3)CC4)ccc2F)CCO1 [Example 103-4, (R)-N-(4-fluoro-3-(2-methylmorpholino)phenyl)-4-((2-hydroxyethyl)sulfonamido)-2-(6-azaspiro[2.5]octan-6-yl)benzamide]
22 | 139 nM | O=C(NCCO)c1ccc(C(=O)Nc2cccc(S(=O)(=O)C3CCCC3)c2)c(N2CCC3(CC2)CC3)c1 [Example 111-4, N^1-(3-(cyclopentylsulfonyl)phenyl)-N^4-(2-hydroxyethyl)-2-(6-azaspiro[2.5]octan-6-yl)terephthalamide]
23 | 60 nM | CC(C)(C)NS(=O)(=O)c1cccc(NC(=O)c2ccc(S(=O)(=O)NC3COC3)cc2N2CCC3(CC2)CC3)c1 [Example 107-5, N-(3-(N-(tert-butyl)sulfamoyl)phenyl)-4-(N-(oxetan-3-yl)sulfamoyl)-2-(6-azaspiro[2.5]octan-6-yl)benzamide]
24 | 52 nM | CC(C)(C)NS(=O)(=O)c1cccc(NC(=O)c2ccc(S(=O)(=O)NC3(C)CC3)cc2N2CCC3(CC2)CC3)c1 [Example 107-7, N-(3-(N-(tert-butyl)sulfamoyl)phenyl)-4-(N-(1-methylcyclopropyl)sulfamoyl)-2-(6-azaspiro[2.5]octan-6-yl)benzamide]
25 | 1090 nM | Cn1cc(-c2ccc(C(=O)Nc3cccc(S(=O)(=O)NC(C)(C)C)c3)c(N3CCC4(CC3)CC4)c2)cn1 [Example 109-2, N-(3-(N-(tert-butyl)sulfamoyl)phenyl)-4-(1-methyl-1H-pyrazol-4-yl)-2-(6-azaspiro[2.5]octan-6-yl)benzamide]
26 | 601 nM | Cn1nccc1-c1ccc(C(=O)Nc2cccc(S(=O)(=O)NC(C)(C)C)c2)c(N2CCC3(CC2)CC3)c1 [Example 109-1, N-(3-(N-(tert-butyl)sulfamoyl)phenyl)-4-(1-methyl-1H-pyrazol-5-yl)-2-(6-azaspiro[2.5]octan-6-yl)benzamide]
27 | 429 nM | C[S@@](=N)(=O)c1cccc(NC(=O)c2ccc(NS(=O)(=O)CCO)cc2N2CCC3(CC2)CC3)c1 [Example 113-1, (R)-4-((2-hydroxyethyl)sulfonamido)-N-(3-(S-methylsulfonimidoyl)phenyl)-2-(6-azaspiro[2.5]octan-6-yl)benzamide]
28 | 70 nM | CN(C)S(=O)(=O)c1ccc(C(=O)Nc2cccc(S(=O)(=O)NC(C)(C)C)c2)c(N2CCC3(CC2)CC3)c1 [Example 107-3, N-(3-(N-(tert-butyl)sulfamoyl)phenyl)-4-(N,N-dimethylsulfamoyl)-2-(6-azaspiro[2.5]octan-6-yl)benzamide]
29 | 57 nM | C[C@H](CO)S(=O)(=O)Nc1ccc(C(=O)Nc2cccc(S(=O)(=O)NC(C)(C)C)c2)c(N2CCC3(CC2)CC3)c1 (single isomer, unassigned) [Example 105-2]
30 | 92 nM | CC(C)(C)NS(=O)(=O)c1cccc(NC(=O)c2ccc([C@@](C)(O)CO)cc2N2CCC3(CC2)CC3)c1 (single isomer, unassigned) [Example 108-1]
31 | 272 nM | CC(C)(C)NS(=O)(=O)c1cccc(NC(=O)c2ccc(C(=O)NC(C)(C)CO)cc2N2CCC3(CC2)CC3)c1 [Example 111-3, N^1-(3-(N-(tert-butyl)sulfamoyl)phenyl)-N^4-(1-hydroxy-2-methylpropan-2-yl)-2-(6-azaspiro[2.5]octan-6-yl)terephthalamide]
